Assay results from US5872118A, “Bicyclic amide derivatives and their use as muscle relaxants” (Glaxo Wellcome Inc., priority 1993, dated 1999).
Where two headings read alike, the source gives them in different places.

Key:
[1] = system: morphine-induced Straub tail; experiment: Straub tail test (central muscle relaxant activity); type: in vivo; conditions: Mus musculus, 1 h; mice, oral gavage 60 min prior to scoring; dose preventing Straub tail in 50% of mice; read-out: Straub Tail p.o. ED50
Protocol: Central muscle relaxant activity of compounds of formula (I) was determined using a Straub tail test based on that described by K. O. Ellis and J. F. Carpenter, Neuropharrnacol, 13, 211 (1974).
The Straub tail test result is reported as an ED50 in mg/kg. The ED50 is defined as the dose of compound administered, which prevents Straub tail in 50% of mice. The compound is administered by oral gavage 60 min. prior to scoring.
(§1) Antagonism of morphine-induced Straub tail reflects central muscle relaxant efficacy while failure in the rotorod test reflects sedation and incoordination. Determination of the ratio of rotorod failure to antagonism of morphine-induced Straub tail is a means of assessing side effect liability of central muscle relaxants (G. D. Novak, Drug Dev. Res., 2, 383 (1982).

[2] = system: carrageenan-induced cell accumulation and edema formation within the rat pleural cavity; experiment: carrageenan pleurisy assay (anti-inflammatory activity); type: in vivo, rat (Lewis male); conditions: po, fasted rats, 0.5 hr before carrageenan, 4 hr
Protocol: The rats used in these experiments were Lewis males, weighing 160-180 g, assigned to groups consisting of 5 animals. Test compounds were given to fasted rats by oral gavage 0.5 hr prior to intrapleural injection of 50 mg carrageenan. After 4 hr, the pleural exudate was collected and the edema volume and cell number were determined. ED50 values were estimated by linear regression analysis, and represent the doses at which a given drug produced 50% inhibition of carrageenan-induced cell accumulation and edema formation within the rat pleural cavity.

CD-1 mice = experiment: single dose oral toxicity; type: in vivo, male CD-1 mice; conditions: within the seven days post dosing, single oral gavage, male CD-1 mice
Protocol: (§2) Single doses (15, 45, 100 or 250 mg/kg) were administered by oral gavage to groups of four non-fasted male CD-1 mice (Charles River).
(§3) Single doses (5, 15, 40, 100, 250, 500 or 1000 mg/kg) were administered by oral gavage to groups of four non-fasted male CD-1 mice (Charles River).

[3] = single dose oral toxicity; type: in vivo, male CD-1 mice; conditions: mouse, in vivo; single oral gavage, non-fasted male CD-1 mice, seven days; read-out: maximum tolerated dose
Protocol: as §2, §3

[4] = mouse rotorod test (sedation and incoordination); conditions: in vivo, po; for selectivity ratio: ratio of rotorod ED50 to Straub tail ED50, p.o.
Protocol: The side effect potential of these compounds was determined using the mouse rotorod test as described by G. D. Novak and J. M. Zwolshei, J.Pharmacological. Methods, 10, 175 (1983). Rotorod result is reported as ED50 in mg/kg. The ED50 is the dose which causes 50% of the animals to fail to maintain position on a cylinder rotating at 11 r.p.m.
as §1

[5] = system: algesic response to mechanical force clamp on the phalanges; experiment: phalanges algesic assay (strong analgesia); type: in vivo, rat (Lewis male); conditions: Rattus norvegicus, po, 1 h; p.o., fasted rats, one hour after dosing; 50% inhibition of latency response
Protocol: The rats used in these studies were Lewis male weighing 160-180 g and assigned to groups of 5-6 animals. The phalanges algesic assay is an algesic test (no hyperalgesia) in which test compounds were given to fasted rats by oral gavage. One hour later an F-shaped mechanical force clamp was applied to the phalanges of one hind limb which initiated an algesic response(vocalization or flight). Latency (seconds) to the algesic response was determined with 3 seconds maximum allowed time. ED50 values were estimated by linear regression analysis and represent the dose at which a given compound extended the latency response to produce 50% inhibition using the formula: (3 sec.-Control Latency)-(3 sec.-Test Latency)/3 sec.-Control Latency×100.

[6] = system: established adjuvant-induced polyarthritis; experiment: established adjuvant-induced polyarthritis; type: in vivo, rat (female Lewis); conditions: 50 mg/kg b.i.d.
Protocol: The procedures for this test have been described in detail by R. Vinegar, J. F. Truax, J. L. Selph, A. Lea, and P. R. Johnston (J. Immunopharmacol. 1:497-520, 1979). The rats used in these studies were female Lewis rats whose starting weight was 190±10 g. Arthritic rats were assigned to treatment groups consisting of six animals each. Fed rats were dosed by oral gavage starting on day 21 post adjuvant injection; therapy was continued until day 28. The incidence and severity of arthritic lesions were assessed using a modification of the scoring procedure described by H. L. F. Currey and M. Ziff (J. Exp. Med. 121:185-203, 1968). Briefly, the bilateral joints were scored for erythema, edema, and ankylosis as outlined below:
The maximal possible score per rat was 40. Experimental results were analyzed by one-way ANOVA, followed by post hoc comparisons of treatment effects versus untreated arthritic control using the Newman-Keuls test. The percent inhibition of each drug-treated group was calculated from the mean relative to the arthritic control.

[7] = system: trypsin-induced rat hind limb hyperalgesia; experiment: trypsin-induced rat hind limb hyperalgesia assay (mild analgesia); type: in vivo, rat (Lewis male); conditions: po, fasted rats, 0.5 hours prior to trypsin, 50% inhibition of latency response
Protocol: The rats used in these studies were Lewis male, weighing 160-180 g. and assigned to groups consisting of 5-6 animals. Test compounds were given to fasted rats by oral gavage 0.5 hours prior to the subplantar injection of […] trypsin in one hind limb. One hour later the rats were evaluated for hyperalgesia using an F-shaped mechanical force clamp on the injected hind limb metatarsal area. Latency (seconds) to the algesic response (vocalization or flight) was determined, with 4 seconds being the maximum latency allowed. ED50 values were estimated by linear regression analysis and represent the dose at which a given drug extended the latency response to produce 50% inhibition using the formula: (4 sec.-Control Latency)-(4 sec.-Test Latency)/4 sec.-Control Latency×100.

punished responding = experiment: anxiolytic activity, punished responding (Geller and Seifter); type: in vivo; conditions: Rattus norvegicus, po; rats, p.o.; lowest dose producing significant increase in punished responding; read-out: MED (Minimal Effective Dose)
Protocol: Anxiolytic activity of compounds of formula (I) was measured using the method of Geller and Seifter, J.Psychopharmacolgia, 1, 482 (1960) as modified by Pollard and Howard, Psychopharmacology, 62, 117 (1979). Clinically efficacious anxiolytics increase punished responding. The anxiolytic activity of the compound is reported as the lowest dose necessary to produce a significant increase in punished responding in rats(MED).

[8] = system: maximal electroshock-induced convulsions; experiment: protection against maximal electroshock-induced convulsions; type: in vivo; conditions: ip; rat, i.p.; prevention of hind limb extension in 50% of animals; read-out: ED50 MES (maximal electroshock)
Protocol: Anticonvulsant activity of compounds of formula (I) was determined using a method described by Mehta et al., J.Med.Chem., 24, 465 (1981).
The anticonvulsant activity is reported as an ED50 in mg/kg. The ED50 for protection against maximal electroshock-induced convulsions was the dose which prevented hind limb extension in 50% of the animals. The ED50 for protection against Metrazol-induced convulsions was the dose which prevented convulsions in 50% of the animals.

[9] = 50% inhibition of cell accumulation, read-out: ED50 Cells
[10] = 50% inhibition of edema formation, read-out: ED50 Edema

Compound	ED50 [1] [mg/kg]	ED50 [2, 9] [mg/kg]	ED50 [2, 10] [mg/kg]	deaths (CD-1 mice)	MTD at 168 h [3] [mg/kg]	TD50 [4] [mg/kg]	selectivity ratio [4]	ED50 [5] [mg/kg]	arthritic scores ([6]; days 22, 25, and 27, oral gavage)	Spleen weight ([6]; postmortem on day 27)	plasma fibrinogen ([6]; postmortem on day 27)	ED50 [7] [mg/kg]	minimal effective dose (punished responding) [mg/kg]	ED50 [8] [mg/kg]
NC(=O)/C=C1\CCc2ccc(F)cc21 [Example 1, (E)-2-(6-Fluoro-1-indanylidene)acetamide]	51	21	20	no deaths	> 250	88	1.7	–	–	–	–	–	–	–
NC(=O)/C=C1\CCc2c(F)cc(F)cc21 [Example 5, (E)-2-(4,6-difluoro-1-indanylidene)acetamide]	54	16	12	no deaths	> 1000	79	1.5	22	significantly (p<0.01) lowered	significantly reduced (p<0.01)	significantly reduced (p<0.01)	4	–	–
O=C(/C=C1\CCCc2ccc(F)cc21)NC1CC1 [Example 13, (E)-N-Cyclopropyl-2-(7-fluoro-1,2,3,4-tetrahydro-1-naphthylidene)acetamide]	–	–	–	–	–	–	–	–	–	–	–	–	3.13	25
